The subject of one data set is primary podocytes. As to the kind of experiment: Podocyte outgrowth (proliferation) assay from isolated decapsulated glomeruli. The settings on record: for podocyte outgrowth area / proliferation of cultured primary podocytes: Pod-Stat3 WT podocytes treated with Stattic, quantified at day 4. Format: cell-based, mouse. As for the experimental part:
Mouse kidneys were extracted, minced, and digested in 2 mg/mL collagenase I solution (Gibco) in RPMI 1640 (Invitrogen) at 37° C. for 3 minutes, then filtered through a 70-μm cell strainer and one more through a 40-μm cell strainer. The homogenate was centrifuged at 720 g for 6 minutes and cells plated. Isolated glomeruli were then collected in Phosphosafc extraction buffer (Novagen) for protein extraction or in RLT extraction buffer (Qiagen) for total RNA extraction. For podocyte primary culture, freshly isolated glomeruli were plated in 6-plate dishes in RPMI 1640 (Invitrogen) supplemented by 10% Fetal Calf Serum (Biowest) and 1% penicillin-streptomycin (Invitrogen). The outgrowth of podocytes started between days 2 and 3. Podocyte outgrowth area was quantified at day 4 using ImageJ software. After 4 days of primary culture, podocytes were trypsinized then plated into μ-Dish 35 mm high with Culture-Insert (Ibidi). Ibidi's wounding inserts were used for cell migration studies. The coverage of the 500-μm gap was assessed after 12 hours of culture and podocyte migration area was quantified using ImageJ software. The effects of HB-EGF (10 ng/mL, Preprotech) or AG1478 (1 μM, Calbiochem) or anti-mIL-6 monoclonal antibody MP5-20F3 (10 μg/mL, eBiosciences) or Stattic (2 μM, Calbiochem) on differentiated podocytes was applied during 16 hours. After stimulation, podocytes were scrapped in Phosphosafe buffer for protein extraction or in RLT buffer for total RNA extraction. […] Anti-miR-Control#1 was used as control (All from Ambion, 50 nM).

Data set [1] relates to Ki67 and PCNA mRNA expression in primary podocytes. As to the kind of experiment: RT-PCR of proliferation markers Ki67 and PCNA in primary podocyte cultures. Format: cell-based, mouse. The procedure:
After 4 days of primary culture, podocytes were trypsinized then plated into μ-Dish 35 mm high with Culture-Insert (Ibidi). Ibidi's wounding inserts were used for cell migration studies. The coverage of the 500-μm gap was assessed after 12 hours of culture and podocyte migration area was quantified using ImageJ software. The effects of HB-EGF (10 ng/mL, Preprotech) or AG1478 (1 μM, Calbiochem) or anti-mIL-6 monoclonal antibody MP5-20F3 (10 μg/mL, eBiosciences) or Stattic (2 μM, Calbiochem) on differentiated podocytes was applied during 16 hours. After stimulation, podocytes were scrapped in Phosphosafe buffer for protein extraction or in RLT buffer for total RNA extraction. Total RNA extraction of mice glomeruli was performed using an Rneasy Minikit (Qiagen) and reverse transcribed into cDNA using the Quantitect Reverse Transcription kit (Qiagen) according to the manufacturer's protocol. cDNA and standard were amplified in Maxima SYBR Green/Rox qPCR mix (Fermentas) on an ABI PRISM thermo cycler. The comparative method of relative quantification (2-ΔΔCT) was used to calculate the expression level of each target gene, normalized to GAPDH. The oligonucleotide sequences are available upon request. The data are presented as the fold change in gene expression. […] Anti-miR-Control#1 was used as control (All from Ambion, 50 nM).

In a further data set the test system is miR-92a. Description: miR-92a expression in kidney / isolated glomeruli of NTS-challenged mice (in situ hybridization, RT-qPCR). The data set is classed as in vivo. As for the experimental part:
The glomerulonephritis was induced on male mice (10-12 weeks of age) by intravenous injection of 15 μL of sheep anti-glomerular basement membrane (GBM) nephrotoxic serum (NTS), which was diluted with 85 μL of sterile phosphate buffer solution. Serum injections were repeated twice (on days 2 and 3) at 6 μL/g of body weight and 7 μL/g respectively.
For miRNA expression analysis, RNA from kidney cortex were prepared with Trizol (Life Technologies) according to manufacturer's instructions. miRNA expression was determined using Taqman miRNA assay (Life technologies) according to manufacturer's protocols. U6 snRNA was used as endogenous control.
In situ hybridization was performed as previously described by Bonaucr et al (66). Briefly, 5 μm-thick kidney paraffin embedded sections were cut and fixed in PFA 4% for 10 min. Then sections were washed with 1× PBS and then acetylated for 10 min. After washes, sections were incubated with […] (Sigma-Aldrich) for 10 min. at 37° C. After washings, sections were incubated with hybridization buffer for 5 h at room temperature. miRNA probes (miR-92a probe double-DIG labeled LNA probes, Exiqon, final concentration 20 nM) was mixed with denaturation buffer and added to the sections followed by incubation over night at 56° C. U6snRNA probe (3′-DIG labeled LAN, probe, Exiqon) was used at 10 nM final concentration and as a positive control. […]
(Quantitative PCR measures a nucleic acid by following its amplification.)

Turning to “anti-miR-92a: 2′O-methylated, end-phosphorothioated antagomir with 3′ cholesterol-TEG, SEQ ID NO: 8, 5′-CAGGCCGGGACAAGUGCAAUA-3′ (VBC biotech) (listed as RNA, chemistry not fully specified)”, the podocyte outgrowth entry in the data set on primary podocytes (anti-miR-92a transfected (50 nM), over 4 days, vs control cells or anti-miR control) is on record as “decrease”. Further, the “Ki67 mRNA level” value in data set [1] (anti-miR-92a transfected (50 nM) primary podocytes, vs control cells or anti-miR control) is on record as “decrease”. Also, the “miR-92a expression in isolated glomeruli during RPGN” value in the data set with miR-92a (antagomiR 12 mg/kg i.v. retro-orbital, preventive strategy, 10 days after NTS) was “specific inhibition”.
Regarding `O=[N+]([O-])c1ccc2c(c1)S(=O)(=O)C=C2` [Stattic], in the data set with primary podocytes, the “podocyte outgrowth area / proliferation of cultured primary podocytes” value was “inhibited”. Moreover, in the data set on primary podocytes (listed as STAT3 inhibitor), the “podocyte outgrowth area / proliferation of cultured primary podocytes” value is recorded as “significantly reduced”. Further, in data set [1] (Stattic 2 μM for 16 hours), the “Ki67 expression in primary podocytes” value is “markedly blunted” and the “PCNA expression in primary podocytes” value is given as “markedly blunted”. Moreover, in the data set with miR-92a (NTS-challenged Pod-Stat3 WT animals treated with Stattic, in situ hybridization, confirmed by RT-qPCR), the “MicroRNA-92a expression in kidney” value is given as “not increased”.

The values above are taken from patent US10344279B2, “Methods for the prevention and the treatment of extracapillary glomerulonephritis” (INSERM (Institut National de la Sante et de la Recherche …, priority 2014, dated 2019).
